Source: patent US11813070B2, “Apparatus for measuring pressure changes in stomach” (VIPUN Medical NV, priority 2017, dated 2023)
Entries after “also recorded” stand apart in the source; their conditions may differ.

Legend:
[1] = system: healthy subjects; experiment: Gastric emptying rate by 13C-octanoic acid breath test (GET½) after codeine or placebo; type: in vivo, human; conditions: inflated balloon (200 ml), 60 mg codeine as syrup, single dose, n=6
Procedure: The study was designed as a randomized crossover study with 4 groups was (see schematic 14): • 20 ml balloon—placebo • 20 ml balloon—codeine • 200 ml balloon—placebo • 200 ml balloon—codeine
The volunteers received either placebo or codeine as a syrup. After positioning the balloon catheter the balloon was filled with 50 ml for 10 minutes, hereafter the balloon was inflated to 200 ml of deflated to 20 ml depending on the treatment arm. After this and in total 20 minutes after syrup ingestion 150 ml of a nutrient drink (Nutridrink, Nutricia (NL)) was directly infused into the stomach at a constant speed of 75 ml/hour. […]
Gastric emptying rate was measured using the ^13C-octanoic acid breath test (11). ^13C-labeled octanoic acid was solved in the nutrient drink (0.5 mg/ml). Emptying of the stomach was assessed by analysis of the exhaled ^13CO2, after oxidation of octanoic acid in the liver. […]
2) Gastric emptying (breath test). The ratio of ^13CO2 to ^12CO2 (molar mass 45 and 44 gr/mol) in the breath samples collected was measured by isotope ratio mass spectrometry (IRMS; ABCA, Sercon, Crewe, UK). As described before (12) a ^13C recovery rate per hour (% dosage per hour) was calculated per sample taking into account that the total dosage ^13C was administered over 2 hours. […]

[2] = system: healthy subjects; experiment: Gastric motility measured as intragastric balloon pressure (motility index, MI) after codeine or placebo; type: in vivo, human; conditions: 60 mg codeine as syrup, single dose, n=6
Source text: The example explored the potential of a balloon with the optimal balloon size as determined in examples 1 and the optimal balloon material characteristics as determined in examples 2. More specifically the aim was 3-fold: • To investigate whether the nasogastric balloon catheter can be used to detect (codeine-induced) decreased gastric motility. • To investigate the correlation between gastric motility and gastric emptying changes after codeine treatment. • To investigate whether the presence of an inflated intragastric balloon influences gastric motility and emptying.
6 healthy subjects were recruited for this study. […] Subjects were asked to come to the clinic after at least 6 hours fasting, none of the subjects were taking any medication apart from contraception pills. […]
The 20 ml balloon experiments served as a control for the 200 ml balloon experiments since the effect of a 200 ml balloon on gastric motility and emptying is unknown. Gastric motility was assessed with a double lumen balloon catheter as described below by measuring the pressure in the balloon with an external pressure sensor. […]
Customized computer software (Pharmlab 5.0; AstraZeneca R&D, Mölndal, Sweden) was used to record pressure as mmHg at 1 Hz. […] The baseline was calculated as follows: […]

Question: What does the source list for COc1ccc2c3c1O[C@H]1[C@@H](O)C=C[C@H]4[C@@H](C2)N(C)CC[C@@]341 [codeine]?
Answer: gastric half emptying time (GET½), codeine vs. placebo [1]: GET½ increased; also recorded: significant treatment effect (P<0.05); also recorded: increased GET½; also recorded: delayed gastric emptying; gastric half emptying time (GET½), codeine vs. placebo ([1]; listed as Codeine): delayed gastric emptying; gastric contractility expressed as motility index (MI), codeine vs. placebo ([2]; deflated balloon (20 ml)): did not significantly affect MI; also recorded: no effect of treatment; also recorded: No effect of codeine on motility could be detected; gastric contractility expressed as motility index (MI), codeine vs. placebo ([2]; inflated balloon (200 ml)): significant effect on MI (P<0.01); also recorded: motility was always decreased; also recorded: significant treatment effect (P<0.01); also recorded: decreased MI; also recorded: significantly decreased gastric motility
